For data set [1], the target named is α1β1 receptors / oocytes injected with α1+β1+δ (Rattus norvegicus, UniProt P15431+P62813). To be noted: 1 mM alcohol. An excerpt:
(§1) Plasmids with inserts encoding GABAA receptor subunit sequence for rat α1 (62), rat β2 (83), rat α2 (62), rat α5 (62), mouse α4 (37), mouse β3 (82), rat β1 (83), rat γ2S (63), human δ (12), and human ε (11) were produced by subcloning each separately into an appropriate cloning vehicle such as PCDM8, pCDNA3.1 or pGHEMHE vectors (Invitrogen, Carlsbad Calif.) using a T7 promoter and standard subcloning techniques (59). Plasmids were linearized with an appropriate restriction enzyme at a site 3′ to the insert and cRNAs were synthesized using T3 or T7 polymerase (mMessage mMachine, Ambion, Tex.). The size of the cRNA was verified and RNA was quantified by ethidium bromide staining after electrophoresis on 1% agarose gels.
(§2) The preparation, injection, and maintenance of oocytes were carried out as described previously (78). […]
(§3) Voltage-clamp recording was carried out 1 to 3 days after injection of cRNAs. […] Oocytes were voltage-clamped at −70 mV and macroscopic currents were recorded with a two-electrode voltage-clamp using a Warner Instruments OC-725 amplifier as described previously (79). Currents were recorded on a chart recorder or by using Axograph on a Macintosh computer. […]

The target in a further data set is T1, α1β2 receptors (Rattus norvegicus, UniProt P62813+P63138).
T1 construct: expressed in transfected cells; host or cells: oocytes injected with cRNA (Xenopus laevis is named only)
T1 sequence (P62813 28-455): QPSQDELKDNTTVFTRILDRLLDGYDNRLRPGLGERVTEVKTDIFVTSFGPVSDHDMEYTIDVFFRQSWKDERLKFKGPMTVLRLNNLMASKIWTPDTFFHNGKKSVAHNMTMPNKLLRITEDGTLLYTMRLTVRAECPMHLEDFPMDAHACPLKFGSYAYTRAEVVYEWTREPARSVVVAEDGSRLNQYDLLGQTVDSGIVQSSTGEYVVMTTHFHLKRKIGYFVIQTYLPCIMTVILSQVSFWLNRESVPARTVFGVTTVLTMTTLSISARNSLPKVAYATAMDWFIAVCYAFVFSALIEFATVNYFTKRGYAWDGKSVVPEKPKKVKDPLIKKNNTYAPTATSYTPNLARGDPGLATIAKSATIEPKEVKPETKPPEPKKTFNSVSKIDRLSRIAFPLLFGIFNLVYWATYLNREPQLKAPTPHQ
T1 sequence (P63138 25-474 limits assumed): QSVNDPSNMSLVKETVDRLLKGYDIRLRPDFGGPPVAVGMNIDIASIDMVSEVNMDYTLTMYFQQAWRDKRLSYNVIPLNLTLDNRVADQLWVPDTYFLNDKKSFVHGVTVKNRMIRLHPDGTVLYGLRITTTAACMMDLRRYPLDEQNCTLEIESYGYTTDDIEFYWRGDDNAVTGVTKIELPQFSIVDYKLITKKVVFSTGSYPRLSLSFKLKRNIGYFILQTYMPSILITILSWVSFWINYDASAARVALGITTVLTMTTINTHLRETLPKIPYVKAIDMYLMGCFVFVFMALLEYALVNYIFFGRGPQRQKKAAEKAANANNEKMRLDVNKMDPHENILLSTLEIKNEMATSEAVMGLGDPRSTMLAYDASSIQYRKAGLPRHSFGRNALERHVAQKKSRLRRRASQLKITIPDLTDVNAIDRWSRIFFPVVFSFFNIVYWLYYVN
In words: Two-electrode voltage-clamp of recombinant GABAA receptors in oocytes. The format is cell-based, expressed in Xenopus laevis oocytes. To be noted: oocytes injected with α1+β2.
Description: as §1, §2, §3
(Two-electrode voltage clamp is typically applied to oocytes expressing channels or transporters.)

The target of data set [2] is T2, α4β2δ GABAA receptors (UniProt O14764+P63138+Q9D6F4).
T2 construct: expressed in transfected cells
T2 sequence (Q9D6F4 36-552): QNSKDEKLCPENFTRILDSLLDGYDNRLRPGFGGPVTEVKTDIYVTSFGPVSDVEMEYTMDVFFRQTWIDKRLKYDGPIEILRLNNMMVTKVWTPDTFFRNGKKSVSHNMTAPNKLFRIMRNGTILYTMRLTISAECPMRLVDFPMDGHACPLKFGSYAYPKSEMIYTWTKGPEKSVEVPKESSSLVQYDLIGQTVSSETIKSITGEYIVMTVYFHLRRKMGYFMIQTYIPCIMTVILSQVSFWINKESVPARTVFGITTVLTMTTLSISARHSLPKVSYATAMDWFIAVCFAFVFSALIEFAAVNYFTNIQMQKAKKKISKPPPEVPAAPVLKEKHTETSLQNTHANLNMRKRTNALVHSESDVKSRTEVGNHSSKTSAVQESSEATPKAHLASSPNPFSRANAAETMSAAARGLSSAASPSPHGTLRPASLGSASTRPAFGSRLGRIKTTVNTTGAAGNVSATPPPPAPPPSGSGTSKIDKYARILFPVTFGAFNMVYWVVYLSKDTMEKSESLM
T2 sequence (P63138 25-474 limits assumed): as the sequence (P63138 25-474 limits assumed) above
T2 sequence (O14764 17-452 limits assumed): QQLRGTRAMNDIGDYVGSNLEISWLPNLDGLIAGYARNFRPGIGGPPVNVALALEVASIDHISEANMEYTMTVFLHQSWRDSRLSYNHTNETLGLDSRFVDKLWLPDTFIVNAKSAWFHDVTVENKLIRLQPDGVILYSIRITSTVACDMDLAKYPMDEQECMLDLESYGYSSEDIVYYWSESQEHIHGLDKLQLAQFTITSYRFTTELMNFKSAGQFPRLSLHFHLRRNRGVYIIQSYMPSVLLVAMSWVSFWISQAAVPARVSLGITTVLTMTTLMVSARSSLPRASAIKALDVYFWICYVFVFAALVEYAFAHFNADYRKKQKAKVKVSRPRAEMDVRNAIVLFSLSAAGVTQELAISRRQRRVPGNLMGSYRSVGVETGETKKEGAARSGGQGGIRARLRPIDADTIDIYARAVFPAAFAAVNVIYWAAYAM
The following applies: oocytes (ref. 67), cited from earlier work.

Another data set has as its system female Long Evans rats. Kind of data set: Elevated plus maze. To be noted: ethanol 0.5 g/kg.
The target of data set [3] is T2, α4β2δ GABAA receptors. Kind of data set: Two-electrode voltage-clamp of recombinant GABAA receptors in oocytes. Type of data set: cell-based. The following applies: 1 mM ethanol.
Another data set deals with GABAR α4 subunit. In words: Western blot of α4 subunit in hippocampus after steroid and ethanol administration. The format is in vivo, rat. As for the experimental part:
Animals were administered steroids using one of two protocols: (i) For the 48 hour steroid administration protocol, animals were injected with 10 mg/kg 3α, 5β THP in oil, i.p., on a daily basis for three days and sacrificed 1-2 hour following the final injection. Controls were injected with oil vehicle. […] At this time, the capsule was removed and the animals were injected with 17 β estradiol (2 μgs/animal) in order to reset their cycle. Animals were sacrificed 24 hours later. […] In all cases, implantation and removal of capsules were performed under halothane anesthesia. […] Therefore, this study employed the 5β isomer of the steroid.
In some groups of animals, either ethanol (0.5 g/kg in saline) or saline vehicle was administered i.p. (3×, every 40 minutes) for the final 2 hours of the respective steroid administration or withdrawal paradigm. The use of multiple injections of low doses of ethanol would approximate ethanol consumption in the human more closely than would a single injection. For the 48 hour steroid administration paradigm, animals received their first ethanol injection immediately after the steroid injection, and subsequent injections at 40 minute intervals. In all cases, animals were sacrificed 40 minutes after the final ethanol injection (2 hours after the first ethanol injection and final steroid injection). All animal protocols were carried out with the approval of the Institutional Animal Care and Use Committee.
Hippocampi removed from steroid or vehicle-treated animals were homogenized, and membranes prepared as previously described (65). Following electrophoresis on 8% SDS polyacrylamide gels, membranes were transferred to a nitrocellulose membrane (Bio-Rad, Hercules, Calif.). α4 subunit levels were detected by evaluating the band density at 67 kDa after probing with a polyclonal antibody (64). Membranes were incubated for 1-2 hours at room temperature with a 1:5000 dilution of horseradish peroxidase-conjugated donkey anti-rabbit IgG (Amersham, Arlington Heights, Ill.), and visualized with enhanced chemiluminescence with varying concentrations of protein in the linear range. Immunoreactive band densities were quantified using a CCD camera (UMAX Scanner) and one-Dscan software, which uses multiple Gaussian fits to achieve accurate band density profiles.
(In general: In western blotting, separated proteins are transferred to a membrane and probed.)

Data set [4] has as its system α1β2δ receptors (oocytes injected with α1+β2+δ). Type of data set: cell-based, rat α1, rat β2, human δ, expressed in Xenopus laevis oocytes. To be noted: oocytes injected with α1+β2+δ.
Description: as §1
The preparation, injection, and maintenance of oocytes were carried out as described previously (78). Oocytes were injected with receptor subunit cRNAs (2 to 20 ng) in the following ratios: α1:β1:γ2S, α1:β2:γ2S and α1:β1:ε1, 1:1:1; α2:β1:γ2S, α5:β1:γ2S, α4:β1:γ2S, and α4:β2:γ2S, 10:1:1; α4:β1:δ, α4:β2:δ, α4:β3δ, 10:1:10; α1:β2:δ, 1:1:10 or 1:0.5:3; α1:β1:δ, 1:1:10 or 1:0.5:3; α2:β1:δ and α2:β2:δ, 1:0.5:3; α1:β1, α1:β2, α2:β1, α2:β2, β2:γ2S and α4δ, 1:1, α4:β1, α4:β2, α4:β3, 10:1, β2δ, 1:10.
Voltage-clamp recording was carried out 1 to 3 days after injection of cRNAs. Electrodes were filled with 3 M KCl and had resistances of 0.4-4 MΩ. Oocytes were positioned in a small Perspex chamber and continuously superfused with a saline solution (100 mM NaCl, 2 mM KCl, 1.8 mM CaCl2, 10 mM HEPES, pH 7.5). Agonists and modulators were both applied in the same saline solution. Oocytes were voltage-clamped at −70 mV and macroscopic currents were recorded with a two-electrode voltage-clamp using a Warner Instruments OC-725 amplifier as described previously (79). Currents were recorded on a chart recorder or by using Axograph on a Macintosh computer.
Other subunits (α1, α2, β1, β2) were tested for co-expression with the δ subunit. […]

For data set [5], the system named is GABAA receptors of acutely isolated CA1 hippocampal pyramidal cells. To be noted: ethanol 1-3 mM, but not higher (>10 mM); after progesterone withdrawal (ref. 67); cited from earlier work.

Where two headings read alike, the source gives them in different places.

Chain of α1β1 receptors / oocytes injected with α1+β1+δ (P62813 28-455): as the sequence (P62813 28-455) above
Chain of α1β1 receptors / oocytes injected with α1+β1+δ (P15431 26-474): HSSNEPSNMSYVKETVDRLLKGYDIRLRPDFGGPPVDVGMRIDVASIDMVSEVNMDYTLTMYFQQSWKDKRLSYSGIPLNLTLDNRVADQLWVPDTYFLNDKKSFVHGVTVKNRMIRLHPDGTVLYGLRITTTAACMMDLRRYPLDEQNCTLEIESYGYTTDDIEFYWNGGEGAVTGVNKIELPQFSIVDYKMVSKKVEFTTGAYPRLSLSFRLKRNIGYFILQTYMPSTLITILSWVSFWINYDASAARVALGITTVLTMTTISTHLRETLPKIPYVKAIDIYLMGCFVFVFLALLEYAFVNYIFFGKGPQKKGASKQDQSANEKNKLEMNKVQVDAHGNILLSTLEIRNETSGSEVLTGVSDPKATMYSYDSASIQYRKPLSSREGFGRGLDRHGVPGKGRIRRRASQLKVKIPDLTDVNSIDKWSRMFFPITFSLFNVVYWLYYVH
Description for female Long Evans rats: Adult, female Long Evans rats (200-250 grams at the time of testing) were used in the following example. Animals were housed in pairs under controlled conditions (14:10 light:dark cycle, 24° C.) with free access to food and water. Progesterone (P, Sigma, crystalline)-filled capsules of silicone tubing (Nalgene Co. 1/16″×⅛″ o.d., 10 mm/100 g body weight) were implanted subcutaneously in the lower back after induction of halothane anesthesia (3-6% in O2, 1 liter/minutes) in the experimental animals. […] Capsules were removed under halothane anesthesia after a 21-day P administration period, and animals tested 24 hours after the last injection (“P withdrawal”). Control animals were tested on the day of diestrus, also referred to as diestrus controls, a low hormone state, as determined by vaginal lavage. […] All animals were tested between 0730 and 1100 hour. Euthanasia was either by decapitation in the electrophysiology experiments or CO2 inhalation for the behavioral experiments following the indicated protocols.
This device consists of four 10×50 cm arms at 90° angles, with two arms enclosed by 40 cm walls, and two open arms, all elevated 50 cm above the floor. The open arms are also partially bordered by small rails extending to the proximal half of the arm, and the floor of the maze is marked with grid lines every 25 cm. […] Both number of entries and duration of time spent in the open and closed arms were tabulated, as were the total arm entries, a measure of general activity level. To be considered an open arm entry, the animal had to cross the line of the open platform with all four paws. An increase in open arm entries or time spent in the open arm versus the total time is considered to be a measure of decreased anxiety, (25).

Regarding `CCO` [ethanol], the “effect on GABA responses” value in data set [1] is “not altered”. For the same compound, the “responses to GABA in presence of alcohol, % of control” value on α1β2 receptors is 88-95 % of control. Also, on α4β2δ GABAA receptors [2] (ethanol 1-3 mM), the “effect on α4β2δ GABAA receptor” value was “potentiated”. Moreover, the “effect on α4β2δ GABAA receptor” value on α4β2δ GABAA receptors [2] (ethanol >10 mM) is recorded as “ineffective”. For the same compound, in the data set with female Long Evans rats, the “% open arm entries, P withdrawn greater than control animals after ethanol” value is 50% and the “time in the open arm, P withdrawn relative to control animals after ethanol” value came out at 3 fold. Besides, in the data set on female Long Evans rats (P withdrawn animals), the “increase of % of open arm entries compared to vehicle” value amounted to 7 fold and the “increase of time in the open arm compared to vehicle” value is listed as “more than 20 fold”. Also, in the data set with female Long Evans rats (control animals), the “effect on open arm time and % open arm entries” value is on record as “no significant effect”. Besides, in the data set on female Long Evans rats (either group), the “locomotor activity (total number of arm entries)” value is “not significantly altered”. Besides, the “increase of GABA-gated currents at α4β2δ receptors” value on α4β2δ GABAA receptors [3] stood at 45±11%. In addition, the α4 expression entry in the data set on GABAR α4 subunit (2 hour ethanol administration after progesterone withdrawal) is given as “unchanged from control levels”. In addition, the “α4 expression in hippocampus” value in the data set on GABAR α4 subunit (ethanol 0.5 g/kg i.p. across final 2 hours of 48 h 3α,5β-THP administration) is “reversed the increase”. Further, the α4 levels entry in the data set with GABAR α4 subunit (ethanol administered without steroid) was “no significant effect”. Besides, in data set [4], the “responses to GABA in presence of alcohol, % of control” value is given as 88-95 % of control. In data set [5], the “effect on GABA-gated current of isolated hippocampal neurons” value is given as “potentiated”.

The record behind these values is patent US7816074B2, “α4 β2 δGABA-A receptors as a strategy for PMS and alcoholism” (priority 2003, dated 2010).
